Data taken from US11584734B2, “Tricyclic compounds as histone methyltransferase inhibitors” (GLOBAL BLOOD THERAPEUTICS, INC., priority 2017, dated 2023).
pIC50: −log10 of the molar value.

target: T1, G9a (Homo sapiens, UniProt Q96KQ7); assay: G9a AlphaLISA enzymatic activity assay; assay type: biochemical; details: negative log of IC50 in molar, 0.15 nM G9a, 15 uM S-adenosyl-methionine, 100 nM biotinylated histone 3 peptide (1-21)
T1 sequence (Q96KQ7 1-1210): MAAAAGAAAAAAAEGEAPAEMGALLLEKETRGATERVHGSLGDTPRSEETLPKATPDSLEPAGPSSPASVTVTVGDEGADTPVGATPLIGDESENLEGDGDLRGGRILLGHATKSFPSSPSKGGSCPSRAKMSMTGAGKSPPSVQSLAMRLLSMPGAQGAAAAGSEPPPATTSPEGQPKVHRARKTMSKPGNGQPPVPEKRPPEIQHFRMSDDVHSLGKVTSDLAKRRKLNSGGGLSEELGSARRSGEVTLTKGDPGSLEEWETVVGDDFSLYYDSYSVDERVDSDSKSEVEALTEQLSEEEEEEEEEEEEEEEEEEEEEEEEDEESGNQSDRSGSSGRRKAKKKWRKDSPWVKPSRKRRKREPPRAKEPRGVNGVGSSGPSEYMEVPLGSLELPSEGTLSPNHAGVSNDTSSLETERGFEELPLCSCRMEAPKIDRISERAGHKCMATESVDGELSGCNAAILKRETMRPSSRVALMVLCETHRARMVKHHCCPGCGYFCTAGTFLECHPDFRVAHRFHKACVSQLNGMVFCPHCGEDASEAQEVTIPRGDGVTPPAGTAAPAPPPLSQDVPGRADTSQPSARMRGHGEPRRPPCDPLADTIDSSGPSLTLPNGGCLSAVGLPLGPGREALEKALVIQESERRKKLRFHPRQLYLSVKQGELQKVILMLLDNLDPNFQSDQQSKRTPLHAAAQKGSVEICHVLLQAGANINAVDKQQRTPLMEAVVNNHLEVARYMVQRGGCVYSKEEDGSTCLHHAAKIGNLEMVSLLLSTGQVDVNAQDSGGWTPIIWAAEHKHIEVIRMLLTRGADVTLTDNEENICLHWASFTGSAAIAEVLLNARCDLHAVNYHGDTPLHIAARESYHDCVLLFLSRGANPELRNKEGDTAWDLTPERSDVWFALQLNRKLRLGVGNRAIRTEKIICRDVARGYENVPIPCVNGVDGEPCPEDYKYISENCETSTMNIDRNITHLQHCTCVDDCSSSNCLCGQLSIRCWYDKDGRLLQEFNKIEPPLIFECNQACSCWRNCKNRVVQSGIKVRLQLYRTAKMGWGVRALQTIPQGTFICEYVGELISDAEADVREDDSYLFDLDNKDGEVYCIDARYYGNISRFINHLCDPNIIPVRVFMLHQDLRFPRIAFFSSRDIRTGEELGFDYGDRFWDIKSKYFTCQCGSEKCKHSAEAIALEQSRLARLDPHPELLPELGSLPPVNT
Text: The G9a AlphaLISA assay was used to detect the methyl modifications of a biotinylated histone H3 peptide by the compounds. These modifications are done by the histone methyl transferase activity of the G9a enzyme. The assay consists of reading a chemiluminescent signal at 615 nm; this signal is generated by a laser excitation at 680 nm that transfers a reactive singlet oxygen between the donor beads and acceptor beads. Donor beads are streptavidin conjugated and bind to the biotin on the peptide. Acceptor beads are conjugated with an antibody that recognizes the specific G9a methyl mark on the peptide. If there is a methyl mark on the peptide, the acceptor beads will bind to the peptide. Upon binding, the acceptor beads will be in close proximity (<200 nm) of the donor beads and when the donor beads are excited, the transfer of the oxygen can occur and a strong signal will be generated. If there is no methyl mark, the interaction between beads will not occur and signal will be at background levels.
For the assay, the following buffer was used to set up reactions: 50 mM Tris-HCl pH9, 50 mM NaCl, 0.01% Tween-20 and 1 mM DTT (added fresh prior to starting the reactions). […] The reaction is incubated at rt for 1 hour and subsequently quenched by the addition of the acceptor beads (anti-H3k9me2 AlphaLISA acceptor beads, PerkinElmer #AL117) at a final concentration of 20 ug/mL. The acceptor beads are incubated for 1 hour. After 1 hour, the donor beads are added at a final concentration of 20 ug/mL (Alpha Streptavidin donor beads, PerkinElmer #6760002). Donor beads are incubated for 0.5 hours. Both donor and acceptor beads are resuspended in AlphaLISA 5X Epigenetics Buffer 1 Kit (PerkinElmer #AL008) prior to addition to the reaction. All manipulations and incubations with the donor and acceptor beads are done in subdued light. Signal is detected in an EnVision plate reader in Alpha mode. See ACS Med Chem Lett. 2014; 5(2):205-9.
Percent inhibition was calculated for each compound dilution and the concentration that produced 50% inhibition was calculated. This value is presented as the pIC50, which is the negative log of the IC50 value in molar.

pIC50 | Structure (SMILES)
8.10 | CNc1c2c(nc3cc(OCCCN4CCCC4)c(OC)cc13)CCCCC2 [Example 19, 2-methoxy-N-methyl-3-[3-(pyrrolidin-1-yl)propoxy]-6H,7H,8H,9H,10H-cyclohepta[b]quinolin-11-amine]
7.81 | COc1cc2c(NC[C@@H]3CCCO3)c3c(nc2cc1OCCCN1CCCC1)CCC3 [Example 25, 7-methoxy-N-{[(2S)-oxolan-2-yl]methyl}-6-[3-(pyrrolidin-1-yl)propoxy]-1H,2H,3H-cyclopenta[b]quinolin-9-amine]
6.96 | CCCNc1c2c(nc3cc(OCCCN4CCCC4)c(OC(F)F)cc13)CCC2 [Example 31, 7-(difluoromethoxy)-N-propyl-6-[3-(pyrrolidin-1-yl)propoxy]-1H,2H,3H-cyclopenta[b]quinolin-9-amine]
8.20 | CCOCCNc1c2c(nc3cc(OCCCN4CCCC4)c(OC)cc13)CCC2 [Example 10, N-(2-ethoxyethyl)-7-methoxy-6-[3-(pyrrolidin-1-yl)propoxy]-1H,2H,3H-cyclopenta[b]quinolin-9-amine]
7.54 | CNc1c2c(nc3cc(OCCCN4CCCC4)c(OC(F)F)cc13)CCC2 [Example 34, 7-(difluoromethoxy)-N-methyl-6-[3-(pyrrolidin-1-yl)propoxy]-1H,2H,3H-cyclopenta[b]quinolin-9-amine]
7.92 | COc1cc2c(NCc3ccn[nH]3)c3c(nc2cc1OCCCN1CCCC1)CCC3 [Example 9, 7-methoxy-N-[(1H-pyrazol-5-yl)methyl]-6-[3-(pyrrolidin-1-yl)propoxy]-1H,2H,3H-cyclopenta[b]quinolin-9-amine]

Second part, the molecule before the results:

Structure (SMILES) | pIC50
CCN(CC)CCOCCOc1cc2nc3c(c(NC(C)C)c2cc1OC)CCC3 [Example 66, 6-{2-[2-(diethylamino)ethoxy]ethoxy}-7-methoxy-N-(propan-2-yl)-1H,2H,3H-cyclopenta[b]quinolin-9-amine] | 6.36
CNc1c2c(nc3cc(OCCCN4CCCC4)c(OC)cc13)CC(C)(C)C2 [Example 24, 7-methoxy-N,2,2-trimethyl-6-[3-(pyrrolidin-1-yl)propoxy]-1H,2H,3H-cyclopenta[b]quinolin-9-amine] | 7.62
COc1cc2c(NC[C@@H]3COCCO3)c3c(nc2cc1OCCCN1CCCC1)CCC3 [Example 26, N-{[(2R)-1,4-dioxan-2-yl]methyl}-7-methoxy-6-[3-(pyrrolidin-1-yl)propoxy]-1H,2H,3H-cyclopenta[b]quinolin-9-amine] | 7.95
COCCNc1c2c(nc3cc(OCCCN4CCCC4)c(OC)cc13)C1CCCC2C1 (stereo not shown) [Example 43, 7-methoxy-N-(2-methoxyethyl)-6-[3-(pyrrolidin-1-yl)propoxy]-3-azatetracyclo[10.3.1.0^{2,11}.0^{4,9}]hexadeca-2,4,6,8,10-pentaen-10-amine] | 7.40
COc1cc2c(NC3CCN(C(C)C)CC3)c3c(nc2cc1OCCCN1CC[C@@H](OC)C1)CCC3 [Example 76, N-(7-methoxy-6-{3-[(3R)-3-methoxypyrrolidin-1-yl]propoxy}-1H,2H,3H-cyclopenta[b]quinolin-9-yl)-1-(propan-2-yl)piperidin-4-amine] | 8.19
CCNc1c2c(nc3cc(OCCCN4CCCC4)c(OC)cc13)CC(C)(C)C2 [Example 6, N-ethyl-7-methoxy-2,2-dimethyl-6-[3-(pyrrolidin-1-yl)propoxy]-1H,2H,3H-cyclopenta[b]quinolin-9-amine] | 7.42
COCCNc1c2c(nc3cc(OCCCN4CCCC4)c(OC)cc13)CCCCC2 [Example 37, 2-methoxy-N-(2-methoxyethyl)-3-[3-(pyrrolidin-1-yl)propoxy]-6H,7H,8H,9H,10H-cyclohepta[b]quinolin-11-amine] | 6.97
CNc1c2c(nc3cc(OCCCN4CCCC4)c(OC)cc13)CCC2(C)C [Example 20, 7-methoxy-N,1,1-trimethyl-6-[3-(pyrrolidin-1-yl)propoxy]-1H,2H,3H-cyclopenta[b]quinolin-9-amine] | 7.14
CNc1c2c(nc3cc(OCCCN)c(OC)cc13)CCC2 [Example 61, 6-(3-aminopropoxy)-7-methoxy-N-methyl-1H,2H,3H-cyclopenta[b]quinolin-9-amine] | 6.27
CNc1c2c(nc3cc(OCCC(C)N4CCCC4)c(OC)cc13)CCC2 (stereo not shown) [Example 64, 7-methoxy-N-methyl-6-[3-(pyrrolidin-1-yl)butoxy]-1H,2H,3H-cyclopenta[b]quinolin-9-amine] | 6.90
